Experimental data taken from ChEMBL document CHEMBL4477245, “Development of a Series of (1-Benzyl-3-(6-methoxypyrimidin-3-yl)-5-(trifluoromethoxy)-1H-indol-2-yl)methanols as Selective Protease Activated Receptor 4 (PAR4) Antagonists with in Vivo Utility and Activity Against γ-Thrombin” (J Med Chem, 2016).
Calls of active or inactive are those of the source. The calls are words filed in the database; no cut-off is given here.

Tests used:
[1] = biological target: T1, Proteinase-activated receptor 4 (Homo sapiens) (UniProt Q96RI0); test: Mixed competitive/non-competitive inhibition of PAR4 activating peptide domain in human platelets assessed as inhibition of alpha2bbeta3 activation level by PAC1 binding assay based by Schild analysis
T1 sequence (whole entry): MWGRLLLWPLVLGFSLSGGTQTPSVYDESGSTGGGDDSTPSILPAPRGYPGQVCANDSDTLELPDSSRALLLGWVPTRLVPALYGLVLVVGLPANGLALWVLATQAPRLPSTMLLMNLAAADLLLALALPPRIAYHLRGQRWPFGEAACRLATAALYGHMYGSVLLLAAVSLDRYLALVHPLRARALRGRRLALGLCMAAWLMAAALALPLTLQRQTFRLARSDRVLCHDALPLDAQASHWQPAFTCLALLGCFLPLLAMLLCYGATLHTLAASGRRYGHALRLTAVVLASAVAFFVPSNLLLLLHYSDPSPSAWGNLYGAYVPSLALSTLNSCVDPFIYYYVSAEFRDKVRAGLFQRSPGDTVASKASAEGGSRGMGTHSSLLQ

[2] = biological target: T1, Proteinase-activated receptor 4 (Homo sapiens); test: Antagonist activity against PAR4 activating peptide domain in human platelets assessed as inhibition of alpha2bbeta3 activation level at 10 uM by PAC1 binding assay
[3] = biological target: T2, Proteinase-activated receptor 4 (Homo sapiens, UniProt Q96RI0); test: Antagonist activity against PAR4 activating peptide domain in human platelets assessed as inhibition of alpha2bbeta3 activation level by PAC1 binding assay
T2 sequence (Q96RI0 whole entry): T1 sequence (whole entry)

[4] = biological target: T3, Proteinase-activated receptor 1 (Homo sapiens, UniProt P25116); test: Inhibition of PAR1 (unknown origin)
T3 sequence (P25116 whole entry): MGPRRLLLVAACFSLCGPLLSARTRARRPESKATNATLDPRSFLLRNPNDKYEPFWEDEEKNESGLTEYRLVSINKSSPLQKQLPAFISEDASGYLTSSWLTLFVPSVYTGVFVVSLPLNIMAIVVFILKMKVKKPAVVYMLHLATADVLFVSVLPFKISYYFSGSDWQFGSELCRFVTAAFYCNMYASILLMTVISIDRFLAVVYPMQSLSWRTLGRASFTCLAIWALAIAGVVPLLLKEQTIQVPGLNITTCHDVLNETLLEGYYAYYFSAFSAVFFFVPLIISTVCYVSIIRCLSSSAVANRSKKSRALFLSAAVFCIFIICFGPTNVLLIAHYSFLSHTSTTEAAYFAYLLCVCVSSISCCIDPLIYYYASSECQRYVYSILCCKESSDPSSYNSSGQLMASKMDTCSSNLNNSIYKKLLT

[5] = biological target: T2, Proteinase-activated receptor 4; test: Antagonist activity against PAR4 activating peptide domain in human platelets assessed as inhibition of P-selectin activation
[6] = Unbound protein binding in rat plasma at 5 uM after 4 hrs by LC/MS/MS analysis
[7] = Unbound protein binding in human plasma at 5 uM after 4 hrs by LC/MS/MS analysis
[8] = Volume of distribution in steady state in Sprague-Dawley rat at 0.2 mg/kg, iv through cassette dosing up to 6 hrs by LC-MS/MS method; conditions: in vivo
[9] = Half life in Sprague-Dawley rat at 0.2 mg/kg, iv through cassette dosing up to 6 hrs by LC-MS/MS method; conditions: in vivo
[10] = biological target: T2, Proteinase-activated receptor 4; test: Antagonist activity at PAR4 TL domain in human platelets assessed as gamma-thrombin-induced PAC1 binding response preincubated for 20 mins followed by agonist addition for 20 mins by FITC based flow cytometric analysis
[11] = biological target: T1, Proteinase-activated receptor 4 (Homo sapiens); test: Antagonist activity at PAR4 TL domain in human platelets assessed as gamma-thrombin-induced PAC1 binding response at 10 uM preincubated for 20 mins followed by agonist addition for 20 mins by FITC based flow cytometric analysis
Cytochrome P450 1A2 = biological target: T4, Cytochrome P450 1A2 (Homo sapiens, UniProt P05177); test: Inhibition of CYP1A2 in human liver microsomes incubated for 15 mins using phenacetin substrate in presence of NADPH by LC-MS/MS method
T4 sequence (P05177 whole entry): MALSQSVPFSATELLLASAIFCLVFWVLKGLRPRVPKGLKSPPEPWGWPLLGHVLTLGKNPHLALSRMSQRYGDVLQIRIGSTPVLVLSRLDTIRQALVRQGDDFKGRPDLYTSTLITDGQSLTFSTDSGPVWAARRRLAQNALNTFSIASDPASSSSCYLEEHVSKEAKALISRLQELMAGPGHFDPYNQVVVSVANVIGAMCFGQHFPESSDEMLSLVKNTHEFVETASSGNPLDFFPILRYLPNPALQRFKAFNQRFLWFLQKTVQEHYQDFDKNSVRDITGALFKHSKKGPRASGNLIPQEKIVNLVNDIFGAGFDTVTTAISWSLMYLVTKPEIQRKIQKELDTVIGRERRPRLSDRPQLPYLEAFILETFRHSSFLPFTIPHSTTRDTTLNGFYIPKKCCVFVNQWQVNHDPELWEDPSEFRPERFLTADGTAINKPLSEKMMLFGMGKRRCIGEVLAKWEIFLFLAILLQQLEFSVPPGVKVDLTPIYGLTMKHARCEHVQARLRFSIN

Cytochrome P450 2C9 = Cytochrome P450 2C9 (Homo sapiens, UniProt P11712); test: Inhibition of CYP2C9 in human liver microsomes incubated for 15 mins using diclofenac substrate in presence of NADPH by LC-MS/MS method
Cytochrome P450 2D6 = Cytochrome P450 2D6 (Homo sapiens, UniProt P10635); test: Inhibition of CYP2D6 in human liver microsomes incubated for 15 mins using dextromethorphan substrate in presence of NADPH by LC-MS/MS method
Cytochrome P450 3A4 = Cytochrome P450 3A4 (Homo sapiens, UniProt P08684); test: Inhibition of CYP3A4 in human liver microsomes incubated for 15 mins using midazolam substrate in presence of NADPH by LC-MS/MS method
[12] = Unbound protein binding in human plasma; type: ADME, cell-free
[13] = Unbound protein binding in rat plasma; type: ADME, cell-free

Cytochrome P450 2D6, sequence (P10635 whole entry): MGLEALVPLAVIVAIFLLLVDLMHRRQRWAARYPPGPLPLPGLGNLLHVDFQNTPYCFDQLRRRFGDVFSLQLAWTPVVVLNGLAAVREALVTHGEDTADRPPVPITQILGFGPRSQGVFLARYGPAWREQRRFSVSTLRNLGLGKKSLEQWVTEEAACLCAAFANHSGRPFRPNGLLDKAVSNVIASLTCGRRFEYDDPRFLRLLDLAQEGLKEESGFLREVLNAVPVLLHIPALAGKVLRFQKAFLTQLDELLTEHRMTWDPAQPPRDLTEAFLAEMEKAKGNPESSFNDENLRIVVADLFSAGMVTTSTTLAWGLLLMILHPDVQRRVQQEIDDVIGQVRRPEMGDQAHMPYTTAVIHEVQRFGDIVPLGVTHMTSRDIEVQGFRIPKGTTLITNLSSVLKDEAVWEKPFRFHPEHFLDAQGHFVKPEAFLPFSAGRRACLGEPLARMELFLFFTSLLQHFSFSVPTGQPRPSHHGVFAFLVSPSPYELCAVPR
Cytochrome P450 2C9, sequence (P11712 whole entry): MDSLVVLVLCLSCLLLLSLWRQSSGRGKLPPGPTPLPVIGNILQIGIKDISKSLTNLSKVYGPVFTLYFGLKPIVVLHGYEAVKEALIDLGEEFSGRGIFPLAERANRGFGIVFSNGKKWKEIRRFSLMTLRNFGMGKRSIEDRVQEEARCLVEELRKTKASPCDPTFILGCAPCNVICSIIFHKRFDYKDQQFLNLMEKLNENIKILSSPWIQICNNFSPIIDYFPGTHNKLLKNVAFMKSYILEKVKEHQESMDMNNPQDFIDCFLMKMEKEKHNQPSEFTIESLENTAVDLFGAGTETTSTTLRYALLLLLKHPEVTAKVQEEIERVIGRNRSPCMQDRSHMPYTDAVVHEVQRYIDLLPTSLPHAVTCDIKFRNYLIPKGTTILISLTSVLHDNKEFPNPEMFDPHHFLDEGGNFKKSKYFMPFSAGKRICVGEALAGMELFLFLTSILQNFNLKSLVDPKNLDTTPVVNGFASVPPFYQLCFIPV
Cytochrome P450 3A4, sequence (P08684 whole entry): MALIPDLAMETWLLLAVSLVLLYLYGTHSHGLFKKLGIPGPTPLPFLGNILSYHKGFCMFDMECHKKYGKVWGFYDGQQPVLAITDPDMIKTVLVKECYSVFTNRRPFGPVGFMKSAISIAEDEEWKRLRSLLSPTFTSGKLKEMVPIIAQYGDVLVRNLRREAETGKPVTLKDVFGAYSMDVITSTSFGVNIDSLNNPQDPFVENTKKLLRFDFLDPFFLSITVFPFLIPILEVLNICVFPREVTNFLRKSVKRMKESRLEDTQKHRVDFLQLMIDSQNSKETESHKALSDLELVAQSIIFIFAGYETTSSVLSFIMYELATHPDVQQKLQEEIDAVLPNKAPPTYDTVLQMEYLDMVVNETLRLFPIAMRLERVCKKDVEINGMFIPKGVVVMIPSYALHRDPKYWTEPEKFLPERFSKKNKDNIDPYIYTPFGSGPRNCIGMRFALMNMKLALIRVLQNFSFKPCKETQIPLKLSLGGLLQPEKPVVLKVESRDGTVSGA

SMILES	%max [2] [%]	IC50 [3] [µM]	other results
COc1ccc(-c2c(CO)n(Cc3ccccc3Cl)c3ccc(OC(F)(F)F)cc23)cn1	–	–	inhibition [1]: Active
COc1nn2cc(-c3c(CO)n(Cc4ccccc4Cl)c4ccc(OC(F)(F)F)cc34)nc2s1	3.2	0.18	IC50 [4]: > 30 µM; IC50 [5]: 0.132 µM; inhibition [1]: Active; Fu [6]: 0.003; Fu [7]: 0.004; Vdss [8]: 21.1 L/kg; t1/2 [9]: 6.1 h; IC50 [10]: 4.35 µM; inhibition [11]: 39.4%; IC50 (Cytochrome P450 1A2): > 30 µM; IC50 (Cytochrome P450 2C9): 11.2 µM; IC50 (Cytochrome P450 2D6): 1.2 µM; IC50 (Cytochrome P450 3A4): > 30 µM
CCOC(=O)c1ccc(-c2nn(Cc3ccccc3)c3ccccc23)cc1	–	–	PB [12]: Unstable; PB [13]: Unstable
CCOc1ccc2c(-c3ccc(OC)nc3)c(CO)n(Cc3ccccc3Cl)c2c1	19.7	3.76	–
OCc1c(-c2cncnc2)c2cc(OC(F)(F)F)ccc2n1Cc1ccc(F)cc1F	96.1	> 10	–
CCOc1ncc(-c2c(CO)n(Cc3ccccc3Cl)c3ccc(OC(F)(F)F)cc23)cn1	35.4	4.91	–
COc1ccc(-c2c(CO)n(Cc3cccc(Br)c3)c3ccc(OC(F)(F)F)cc23)cn1	27.1	2.19	–
COc1ncc(-c2c(CO)n(Cc3ccc(F)cc3F)c3ccc(OC(F)(F)F)cc23)cn1	53.6	–	–
COc1ccc2c(-c3cnc(SC)nc3)c(CO)n(Cc3ccccc3Cl)c2c1	21.3	4.15	–
COc1ccc(-c2c(CO)n(Cc3cccc(F)c3)c3ccc(OC(F)(F)F)cc23)cn1	80.6	> 10	–
COc1ccc(-c2c(CO)n(Cc3cccc(Cl)c3)c3ccc(OC(F)(F)F)cc23)cn1	95.5	> 10	–
COc1ccc(-c2c(CO)n(Cc3ccc(F)cc3F)c3ccc(OC(F)(F)F)cc23)cn1	19.7	5.11	IC50 [4]: > 30 µM
COc1ncc(-c2c(CO)n(Cc3ccccc3Cl)c3ccc(OC(F)(F)F)cc23)cn1	7.95	1.5	–
COc1ccc(-c2c(CO)n(Cc3ccccc3Cl)c3cc(OC(F)(F)F)ccc23)cn1	12.3	0.93	IC50 [4]: > 30 µM
CCOC(=O)c1ccc(-c2cn(Cc3ccccc3)c3ccccc23)cc1	–	–	PB [12]: Unstable; PB [13]: Unstable
COc1ccc(-c2c(CO)n(Cc3ccccc3F)c3ccc(OC(F)(F)F)cc23)cn1	89	> 10	–
COc1ccc(-c2c(CO)n(Cc3cccc(C(F)(F)F)c3)c3ccc(OC(F)(F)F)cc23)cn1	19.7	4.82	–
COc1ccc(-c2c(CO)n(C)c3ccc(C(F)(F)F)cc23)cn1	106	> 10	–
COc1ccc(-c2c(CO)n(Cc3ccccc3)c3ccc(OC(F)(F)F)cc23)cn1	53.4	> 10	–
CSc1ncc(-c2c(CO)n(Cc3ccccc3Cl)c3cc(OC(F)(F)F)ccc23)cn1	5.57	0.21	IC50 [4]: > 30 µM
COc1cccc(Cn2c(CO)c(-c3ccc(OC)nc3)c3cc(C(F)(F)F)ccc32)c1	108	> 10	–
COc1ccc2c(-c3ccc(OC)nc3)c(CO)n(Cc3ccccc3Cl)c2c1	4.31	1.39	–
OCc1c(-c2ccncc2)c2cc(OC(F)(F)F)ccc2n1Cc1ccccc1Cl	101	> 10	–
CSc1ncc(-c2c(CO)n(Cc3ccc(F)cc3F)c3ccc(OC(F)(F)F)cc23)cn1	15.6	1.49	–
